# Data as given in the supplement of paper PMC4932681.
# Structures can show the parent of a compound that is named as a salt.
# Assays:
# Test in all cases: viability inhibition at highest dose (% inhibition); higher = more growth inhibition
# BT-474 Tam1 = details: 4-OH-tamoxifen in medium 1 µM; 72 h
# How it was run: (§1)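 Drug sensitivity score, relative IC50 as the curve midpoint, and top-dose inhibition were derived from logistic dose–response fits in the Breeze pipeline. These fits used CellTiter-Glo viability, read on a PHERAstar and normalised to vehicle-only and positive controls. Breast cancer cell lines and resistant derivatives had been incubated for 72 h at 37 °C in 384-well plates holding library drugs at five concentrations spanning a 10 000-fold range. Resistant lines were grown in medium with 1 μM of the selecting drug.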
# T-47D = details: 72 h
# How it was run: as §1
# ZR-75-1 = details: 72 h
# How it was run: as §1
# BT-474 = details: 72 h
# How it was run: as §1
# ZR-75-1 Tam2 = details: 4-OH-tamoxifen in medium 1 µM; 72 h
# How it was run: as §1
# BT-474 Tam2 = details: 4-OH-tamoxifen in medium 1 µM; 72 h
# How it was run: as §1
# MCF-7 Tam1 = details: 4-OH-tamoxifen in medium 1 µM; 72 h
# How it was run: as §1
# MCF-7 = details: 72 h
# How it was run: as §1
# T-47D Tam2 = details: 4-OH-tamoxifen in medium 1 µM; 72 h
# How it was run: as §1
# ZR-75-1 Tam1 = details: 4-OH-tamoxifen in medium 1 µM; 72 h
# How it was run: as §1
# T-47D Tam1 = details: 4-OH-tamoxifen in medium 1 µM; 72 h
# How it was run: as §1
SMILES,viability inhibition at highest dose (BT-474 Tam1),viability inhibition at highest dose (T-47D; 4-OH-tamoxifen in medium 0 µM),viability inhibition at highest dose (T-47D; 4-OH-tamoxifen in medium 1 µM),viability inhibition at highest dose (ZR-75-1; 4-OH-tamoxifen in medium 0 µM),viability inhibition at highest dose (ZR-75-1; 4-OH-tamoxifen in medium 1 µM),viability inhibition at highest dose (BT-474; 4-OH-tamoxifen in medium 0 µM),viability inhibition at highest dose (BT-474; 4-OH-tamoxifen in medium 1 µM),viability inhibition at highest dose (ZR-75-1 Tam2),viability inhibition at highest dose (BT-474 Tam2),viability inhibition at highest dose (MCF-7 Tam1),viability inhibition at highest dose (MCF-7; 4-OH-tamoxifen in medium 0 µM),viability inhibition at highest dose (MCF-7; 4-OH-tamoxifen in medium 1 µM),viability inhibition at highest dose (T-47D Tam2),viability inhibition at highest dose (ZR-75-1 Tam1),viability inhibition at highest dose (T-47D Tam1)
CN(Cc1cnc2nc(N)nc(N)c2n1)c1ccc(C(=O)N[C@@H](CCC(=O)O)C(=O)O)cc1 [Methotrexate] (drug 10000 nM),-17.3,-7.44,-4.13,22.8,2.09,-11.3,-21.2,10.5,2.17,14.2,18.8,29.1,6.27,15.9,-0.232
CCN(CC)CCOc1ccc(C(=C(Cl)c2ccccc2)c2ccccc2)cc1 [Clomifene citrate] (drug 10000 nM),86.8,21.6,26.1,23.4,36.7,85.5,84,42.3,97.3,57.7,12.8,85.5,48.9,24.1,40.8
"O=P1(N(CCCl)CCCl)NCCCO1 (stereo not given) [Clafen (Cyclophosphamide, Endoxan)] (drug 40000 nM)",-0.665,-14,-13.7,-3.78,-1.89,-4.59,-11.3,-3.35,2.47,1.76,-6.33,11,11.9,7.03,-3.65
CN1CCN(CCOc2cc(OC3CCOCC3)c3c(Nc4c(Cl)ccc5c4OCO5)ncnc3c2)CC1 [Saracatinib] (drug 10000 nM),100,17.5,-7.13,-37.6,-19.4,50.3,94.4,-17.9,100,4.6,25.2,15,27.9,-10.5,36.6
CC/C(=C(\c1ccc(O)cc1)c1ccc(OCCN(C)C)cc1)c1ccccc1 [4-hydroxytamoxifen] (drug 10000 nM),97.8,20.4,59,8.03,33.1,23.3,97.2,21.5,96,46.3,52.3,83.1,79.7,17.8,38.4
CC(C)C(=O)Nc1ccc([N+](=O)[O-])c(C(F)(F)F)c1 [Flutamide] (drug 10000 nM),6.08,0.571,-1.73,-10.7,-3.17,-10.2,-11.4,-5.1,6.26,-3.99,-18,15.9,11.2,-0.0944,6.02
O=P(O)(NCCCl)NCCCl [Ifosfamide mustard] (drug 10000 nM),-11.5,-13.8,-10.1,-10.9,-4.6,-4.47,-15.1,0.309,-5.04,-11,-19.2,-14.2,-1.32,1.78,-3.5
